# According to PMC10779086, “3-O-Methyltolcapone and Its Lipophilic Analogues Are Potent Inhibitors of Transthyretin Amyloidogenesis with High Permeability and Low Toxicity” (International Journal of Molecular Sciences, 2023):
# Legend:
# [1] = Blood-brain barrier permeability (PAMPA-BBB); type: in vitro ADME; conditions: for Papp: PBS pH 7.4, read-out: BBB-Pe; for CNS Class: classified by Pe; for permeability (Pe) times higher compared to tolcapone: relative to tolcapone
# Protocol: (§1) The assay combines solubility and a non-cell-based Blood Brain Barrier permeability assay (Parallel Artificial Membrane Permeation Assay; PAMPA-BBB) into a single workflow in which a portion of the filtrate from the Solubility filter plate is added to the donor compartment of the MultiScreen filter plate for the PAMPA-BBB analysis. […] Solutions were filtered into a 96-well collection plate using vacuum filtration and then analysed by UV/Vis spectroscopy. The relative solubility was then calculated using the sum of the recorded values as compared to a standard calibration curve. […] PAMPA-BBB determination was carried out in a 96-well MultiScreen Permeability plate and the ability of a compound to diffuse from a Donor to an Acceptor compartment separated by a Porcine Brain Lipid Extract (PBLE) dissolved in dodecane (20 mg/mL) layer on a PVDF membrane support was measured. The assay was performed in duplicate in PBS at pH 7.4 and the analysis is carried out by UV/Vis spectroscopy.
# The compounds are classified into 2 types: CNS+ compounds that can cross the BBB and CNS- compounds that cannot according to the Pe values (BBB−, Pe < 2 × 10^−6 cm/s; BBB +/−, 2 × 10^−6 cm/s < Pe < 4 × 10^−6 cm/s; BBB+, Pe > 4 × 10^−6 cm/s).
# Membrane retention is also evaluated according to Equation (1), (1) 1−Rm=CAccVAcc+CDonorVDonor/Sol×VDonor where Rm is the membrane retention factor. 1 − Rm between 1.2 and 0.8 is considered fully acceptable for the reliability of the results.
# [2] = Chromatographic Hydrophobicity Index (CHI); type: physicochemical
# Source text: The assay is a chromatographic fast gradient reversed-phase method which allows to characterize the lipophilicity of compounds in high throughput screening regime at three different pH values (2.0; 7.4; 10.5). The so defined CHI is obtained from the gradient (buffer/Acetonitrile) retention time after calibrating the chromatographic system with a test mixture of ten known standard compounds. For most compounds, CHI is between 0 and 100 and it approximates the percentage (by volume) of acetonitrile required to achieve an equal distribution of compound between the mobile and the lipophilic stationary phase of a C18 chromatographic column. Compounds that are not retained on the column are assigned to a CHI value < 0, which means very low lipophilicity. For highly lipophilic compounds, which are strongly retained by the column, a CHI value of >100 is assigned. For any value in between, the actual CHI value is calculated based on the calibration line of the reference compounds [49].
# [3] = system: HepG2 human liver cancer cell line; assay: Cytotoxicity in HepG2 cells (ATP viability assay); type: cell-based; conditions: 48 h
# Protocol: Compounds were dissolved at the concentration of 50 mM in DMSO.
# DMSO normalisation at 1.0% was performed in each well.
# (§2) Cell viability was evaluated by measuring ATP levels using CellTiter Glo (Promega Cat.n. G7570) according to manufacturer’s instructions.
# [4] = Caco-2 intestinal permeability; type: in vitro ADME, human; conditions: human; for efflux ratio at 60 min, 10 μM: Caco-2, pH 7.4, without inhibitor, read-out: Efflux Ratio (Papp BA/Papp AB); for Papp A→B at 60 min, 10 μM / Papp B→A at 60 min, 10 μM: Caco-2, pH 7.4
# Protocol: Caco-2 cells (cod. HTB-37) were bought from ATCC (American Type Culture Collection, Rockville, MD, USA). Caco-2 cells were cultured for 21 days on a 24 trans-well plate to reach the right confluence and differentiate until the formation of the intestinal epithelium mimetic monolayer. The test substance permeability was measured in both directions (apical to basolateral [A→B] and basolateral to apical [B→A]) across the cell monolayer. The assay was carried out in HBSS transport medium at pH 7.4. Test substance at single concentration (10 μM) was tested in duplicate at one time point (60 min). Monolayer integrity of Caco-2 cells was evaluated by TEER measurements during the experiment and by Lucifer Yellow test after the incubation with the test compound. The concentrations of the test substance and/or reference controls were measured by LC-MS/MS.
# When the inhibitor leads the efflux ratio to a significant reduction (>50%) or to unity, the test compound is classified as a probable substrate of that efflux transporter. As control, the modulation of the efflux ratio of a reference known substrate (Digoxin) was evaluated with or without the respectively inhibitors in every experiment. […] In parallel, mass balance (%) of recovered test substance was also determined. […] Outside these ranges the permeability data is not reliable.
# [5] = system: SH-SY5Y neuroblastoma human cell line; assay: Cytotoxicity in SH-SY5Y cells (ATP viability assay); type: cell-based; conditions: 48 h
# Protocol: The neuroblastoma cell line SHSY-5Y (ATCC CRL2266) was cultured in EMEM ATCC medium supplemented with 10% FBS (Euroclone CAT No. ECS0180D), 100 units/mL penicillin, and 100 ug/mL streptomycin sulphate (Euroclone CAT No. ECB3001). Cells were grown at 37 °C in an atmosphere of 5% CO2 and plated at 10,000 cells/well in a 96-well plate (Corning Cat. N. 3610). The compounds were dissolved at a concentration of 10 mM in DMSO. Cells were stimulated for 48 h at 37 °C with serial dilutions of the compounds at the following concentrations: 0.1, 1, 10, 50, 100, and 200 μM and dispensed with an HP Dispenser (Tecan), as triplicates for each concentration. DMSO normalisation at 1.5% was performed in each well.
# as §2
# [6] = Kinetic solubility in PBS; type: physicochemical; conditions: Phosphate Buffered Saline (PBS), aqueous buffer, kinetic from dmso stock, PBS pH 7.4, 1% DMSO
# Protocol: as §1
1-Rm (membrane retention) [1],Papp [1] [×10⁻⁶ cm/s],CNS Class [1],permeability (Pe) times higher compared to tolcapone [1] [times],CHI (pH 2.0) [2],CHI (pH 7.4) [2],CHI (pH 10.5) [2],"recovery at 60 min, 10 µM ([4]; Caco-2, pH 7.4, A→B) [%]","recovery at 60 min, 10 µM ([4]; Caco-2, pH 7.4, B→A) [%]","efflux ratio at 60 min, 10 μM [4]","Papp A→B at 60 min, 10 μM [4] [×10⁻⁶ cm/s]","Papp B→A at 60 min, 10 μM [4] [×10⁻⁶ cm/s]",solubility [6] [µM],Structure (SMILES),EC50 [3] [µM],EC50 [5] [µM]
0.9,14.4,"CNS+ (BBB+, Pe > 4 × 10^−6 cm/s)",2.5,89.2,50.2,46.0,66 ± 4,83 ± 8,1.5,16 ± 2.9,24.3 ± 3,> 500,"COc1cc(C(=O)c2ccc(C)cc2)cc([N+](=O)[O-])c1O [3-OMT, 3-O-methyltolcapone]",262 ± 20.7,226.3 ± 1.3
0.9,15.3,"CNS+ (BBB+, Pe > 4 × 10^−6 cm/s)",2.5,97.8,55.5,51.7,64 ± 4,77 ± 2,1,24 ± 2.1,23.1 ± 2.3,> 500,"COc1cc(C(=O)c2cc(C)cc(C)c2)cc([N+](=O)[O-])c1O [Compound 1, (4-Hydroxy-3-methoxy-5-nitrophenyl)-1-(3,5-dimethylphenyl)methanone]",410 ± 33,172 ± 5
1.0,13.5,"CNS+ (BBB+, Pe > 4 × 10^−6 cm/s)",2.5,96.1,53.8,50.2,69 ± 8,80 ± 9,1,25 ± 0.3,26.8 ± 2.5,> 500,"COc1cc(C(=O)c2ccc(C)cc2C)cc([N+](=O)[O-])c1O [Compound 2, (4-Hydroxy-3-methoxy-5-nitrophenyl)-1-(2,4-dimethylphenyl)methanone]",216 ± 2.2,174 ± 3.7
